System: 324938-238-R-J1-PDC complex spheroids viability
Experiment: Anticancer human tumor 324938-238-R-J1-PDC patient-derived bladder carcinoma cell line growth inhibition [CLK]
Conditions: for IC50: curve of first compound; for viability, T/C: stronger effect = lower value
Summary of the method: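 Multi-cell-type spheroids combined patient-derived tumor cells with HUVEC endothelial cells and human mesenchymal stem cells. Paired agents were dosed in half-log steps down from about clinical Cmax, or from 10 microM where Cmax was unknown.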

[1] = second compound 0.0316 µM, first compound 0.00949 µM
[2] = second compound 0.0316 µM, first compound 0.03 µM
[3] = second compound 0.0316 µM, first compound 0.0949 µM
[4] = second compound 0.0316 µM, first compound 0.3 µM
[5] = second compound 0.1 µM, first compound 0.00949 µM
[6] = second compound 0.1 µM, first compound 0.03 µM
[7] = second compound 0.1 µM, first compound 0.0949 µM
[8] = second compound 0.1 µM, first compound 0.3 µM
[9] = second compound 0.316 µM, first compound 0.00949 µM
[10] = second compound 0.316 µM, first compound 0.03 µM
[11] = second compound 0.316 µM, first compound 0.0949 µM
[12] = second compound 0.316 µM, first compound 0.3 µM
[13] = second compound 1 µM, first compound 0.00949 µM
[14] = second compound 1 µM, first compound 0.03 µM
[15] = second compound 1 µM, first compound 0.0949 µM
[16] = second compound 1 µM, first compound 0.3 µM
[17] = second compound 3.16 µM, first compound 0.00949 µM
[18] = second compound 3.16 µM, first compound 0.03 µM
[19] = second compound 3.16 µM, first compound 0.0949 µM
[20] = second compound 3.16 µM, first compound 0.3 µM
[21] = second compound 10 µM, first compound 0.00949 µM
[22] = second compound 10 µM, first compound 0.03 µM
[23] = second compound 10 µM, first compound 0.0949 µM
[24] = second compound 10 µM, first compound 0.3 µM
[25] = second compound 0.0316 µM, first compound 0.0316 µM
[26] = second compound 0.0316 µM, first compound 0.1 µM
[27] = second compound 0.0316 µM, first compound 0.316 µM
[28] = second compound 0.0316 µM, first compound 1 µM
[29] = second compound 0.0316 µM, first compound 3.16 µM
[30] = second compound 0.0316 µM, first compound 10 µM
[31] = second compound 0.1 µM, first compound 0.0316 µM
[32] = second compound 0.1 µM, first compound 0.1 µM
[33] = second compound 0.1 µM, first compound 0.316 µM
[34] = second compound 0.1 µM, first compound 1 µM
[35] = second compound 0.1 µM, first compound 3.16 µM
[36] = second compound 0.1 µM, first compound 10 µM
[37] = second compound 0.316 µM, first compound 0.0316 µM
[38] = second compound 0.316 µM, first compound 0.1 µM
[39] = second compound 0.316 µM, first compound 0.316 µM
[40] = second compound 0.316 µM, first compound 1 µM
[41] = second compound 0.316 µM, first compound 3.16 µM
[42] = second compound 0.316 µM, first compound 10 µM
[43] = second compound 1 µM, first compound 0.0316 µM
[44] = second compound 1 µM, first compound 0.1 µM
[45] = second compound 1 µM, first compound 0.316 µM
[46] = second compound 1 µM, first compound 1 µM
[47] = second compound 1 µM, first compound 3.16 µM
[48] = second compound 1 µM, first compound 10 µM
[49] = second compound 3.16 µM, first compound 0.0316 µM
[50] = second compound 3.16 µM, first compound 0.1 µM
[51] = second compound 3.16 µM, first compound 0.316 µM
[52] = second compound 3.16 µM, first compound 1 µM
[53] = second compound 3.16 µM, first compound 3.16 µM
[54] = second compound 3.16 µM, first compound 10 µM
[55] = second compound 10 µM, first compound 0.0316 µM
[56] = second compound 10 µM, first compound 0.1 µM
[57] = second compound 10 µM, first compound 0.316 µM
[58] = second compound 10 µM, first compound 1 µM
[59] = second compound 10 µM, first compound 3.16 µM
[60] = second compound 10 µM, first compound 10 µM
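Note: viability read after seven days of drug exposure.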
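Throughout, for viability, T/C: 100% = DMSO vehicle control wells.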

SMILES: C=CC(=O)Nc1cc(Nc2nccc(-c3cn(C)c4ccccc34)n2)c(OC)cc1N(C)CCN(C)C + CN1CCN(c2cc(C(=O)Nc3cc4cc(-c5cnn(C)c5)ccc4cn3)ccn2)CC1
- IC50 (second compound 0.0316 µM): 0.0695 µM
- IC50 (second compound 0.1 µM): 0.00625 µM
- IC50 (second compound 0.316 µM): < 0.000949 µM
- IC50 (second compound 1 µM): < 0.000949 µM
- IC50 (second compound 3.16 µM): < 0.000949 µM
- IC50 (second compound 10 µM): < 0.000949 µM
- viability, T/C (second compound 0.0316 µM, first compound 0.000949 µM): 80%
- viability, T/C (second compound 0.0316 µM, first compound 0.003 µM): 77.5%
- viability, T/C [1]: 69.7%
- viability, T/C [2]: 66.3%
- viability, T/C [3]: 43.7%
- viability, T/C [4]: 25.3%
- viability, T/C (second compound 0.1 µM, first compound 0.000949 µM): 60.3%
- viability, T/C (second compound 0.1 µM, first compound 0.003 µM): 48.5%
- viability, T/C [5]: 51%
- viability, T/C [6]: 39%
- viability, T/C [7]: 33%
- viability, T/C [8]: 19.1%
- viability, T/C (second compound 0.316 µM, first compound 0.000949 µM): 19.7%
- viability, T/C (second compound 0.316 µM, first compound 0.003 µM): 22.8%
- viability, T/C [9]: 20.9%
- viability, T/C [10]: 21.8%
- viability, T/C [11]: 17.1%
- viability, T/C [12]: 15.7%
- viability, T/C (second compound 1 µM, first compound 0.000949 µM): 1.22%
- viability, T/C (second compound 1 µM, first compound 0.003 µM): 1.22%
- viability, T/C [13]: 1.43%
- viability, T/C [14]: 1.11%
- viability, T/C [15]: 1.21%
- viability, T/C [16]: 0.28%
- viability, T/C (second compound 3.16 µM, first compound 0.000949 µM): 0.13%
- viability, T/C (second compound 3.16 µM, first compound 0.003 µM): 0.13%
- viability, T/C [17]: 0.19%
- viability, T/C [18]: 0.14%
- viability, T/C [19]: 0.11%
- viability, T/C [20]: 0.16%
- viability, T/C (second compound 10 µM, first compound 0.000949 µM): 0.15%
- viability, T/C (second compound 10 µM, first compound 0.003 µM): 0.16%
- viability, T/C [21]: 0.21%
- viability, T/C [22]: 0.16%
- viability, T/C [23]: 0.18%
- viability, T/C [24]: 0.21%

SMILES: CC1(C)CCC(CN2CCN(c3ccc(C(=O)NS(=O)(=O)c4ccc(NCC5CCOCC5)c([N+](=O)[O-])c4)c(Oc4cnc5[nH]ccc5c4)c3)CC2)=C(c2ccc(Cl)cc2)C1 + CN1CCN(c2cc(C(=O)Nc3cc4cc(-c5cnn(C)c5)ccc4cn3)ccn2)CC1
- IC50 (second compound 0.0316 µM): 6.72 µM
- IC50 (second compound 0.1 µM): 1.48 µM
- IC50 (second compound 0.316 µM): < 0.0316 µM
- IC50 (second compound 1 µM): < 0.0316 µM
- IC50 (second compound 3.16 µM): < 0.0316 µM
- IC50 (second compound 10 µM): < 0.0316 µM
- viability, T/C [25]: 79.6%
- viability, T/C [26]: 90.2%
- viability, T/C [27]: 80.3%
- viability, T/C [28]: 81%
- viability, T/C [29]: 82.8%
- viability, T/C [30]: 32.7%
- viability, T/C [31]: 51.9%
- viability, T/C [32]: 55.4%
- viability, T/C [33]: 47.4%
- viability, T/C [34]: 54.9%
- viability, T/C [35]: 46.2%
- viability, T/C [36]: 26.4%
- viability, T/C [37]: 25.2%
- viability, T/C [38]: 22.9%
- viability, T/C [39]: 19%
- viability, T/C [40]: 24.8%
- viability, T/C [41]: 21.5%
- viability, T/C [42]: 11.6%
- viability, T/C [43]: 1.53%
- viability, T/C [44]: 1.38%
- viability, T/C [45]: 1.4%
- viability, T/C [46]: 1.48%
- viability, T/C [47]: 1.08%
- viability, T/C [48]: 0.34%
- viability, T/C [49]: 0.12%
- viability, T/C [50]: 0.21%
- viability, T/C [51]: 0.14%
- viability, T/C [52]: 0.14%
- viability, T/C [53]: 0.11%
- viability, T/C [54]: 0.16%
- viability, T/C [55]: 0.12%
- viability, T/C [56]: 0.16%
- viability, T/C [57]: 0.16%
- viability, T/C [58]: 0.14%
- viability, T/C [59]: 0.19%
- viability, T/C [60]: 0.19%

SMILES: NC(=O)C(=Cn1cnc(-c2cc(C(F)(F)F)cc(C(F)(F)F)c2)n1)c1cncnc1 + CN1CCN(c2cc(C(=O)Nc3cc4cc(-c5cnn(C)c5)ccc4cn3)ccn2)CC1
- IC50 (second compound 0.0316 µM): 0.0449 µM
- IC50 (second compound 0.1 µM): < 0.00949 µM
- IC50 (second compound 0.316 µM): < 0.00949 µM
- IC50 (second compound 1 µM): < 0.00949 µM
- IC50 (second compound 3.16 µM): < 0.00949 µM
- IC50 (second compound 10 µM): < 0.00949 µM
- viability, T/C [1]: 73.6%
- viability, T/C [2]: 56.1%
- viability, T/C [3]: 37.3%
- viability, T/C [4]: 11.8%
- viability, T/C (second compound 0.0316 µM, first compound 0.949 µM): 4.81%
- viability, T/C (second compound 0.0316 µM, first compound 3 µM): 2.71%
- viability, T/C [5]: 47.5%
- viability, T/C [6]: 37.8%
- viability, T/C [7]: 26%
- viability, T/C [8]: 8.9%
- viability, T/C (second compound 0.1 µM, first compound 0.949 µM): 3.44%
- viability, T/C (second compound 0.1 µM, first compound 3 µM): 1.05%
- viability, T/C [9]: 21.6%
- viability, T/C [10]: 13.4%
- viability, T/C [11]: 11.1%
- viability, T/C [12]: 1.12%
- viability, T/C (second compound 0.316 µM, first compound 0.949 µM): 0.14%
- viability, T/C (second compound 0.316 µM, first compound 3 µM): 0.06%
- viability, T/C [13]: 0.21%
- viability, T/C [14]: 0.17%
- viability, T/C [15]: 0.15%
- viability, T/C [16]: 0.09%
- viability, T/C (second compound 1 µM, first compound 0.949 µM): 0.08%
- viability, T/C (second compound 1 µM, first compound 3 µM): 0.09%
- viability, T/C [17]: 0.09%
- viability, T/C [18]: 0.13%
- viability, T/C [19]: 0.16%
- viability, T/C [20]: 0.12%
- viability, T/C (second compound 3.16 µM, first compound 0.949 µM): 0.12%
- viability, T/C (second compound 3.16 µM, first compound 3 µM): 0.11%
- viability, T/C [21]: 0.07%
- viability, T/C [22]: 0.12%
- viability, T/C [23]: 0.23%
- viability, T/C [24]: 0.16%
- viability, T/C (second compound 10 µM, first compound 0.949 µM): 0.18%
- viability, T/C (second compound 10 µM, first compound 3 µM): 0.21%

SMILES: Nc1ccccc1NC(=O)c1ccc(CNC(=O)OCc2cccnc2)cc1 + CN1CCN(c2cc(C(=O)Nc3cc4cc(-c5cnn(C)c5)ccc4cn3)ccn2)CC1
- IC50 (second compound 0.0316 µM): 1.2 µM
- IC50 (second compound 0.1 µM): 0.173 µM
- IC50 (second compound 0.316 µM): < 0.0316 µM
- IC50 (second compound 1 µM): < 0.0316 µM
- IC50 (second compound 3.16 µM): < 0.0316 µM
- IC50 (second compound 10 µM): < 0.0316 µM
- viability, T/C [25]: 80.2%
- viability, T/C [26]: 88.1%
- viability, T/C [27]: 70.5%
- viability, T/C [28]: 52.5%
- viability, T/C [29]: 32.2%
- viability, T/C [30]: 14.2%
- viability, T/C [31]: 58.5%
- viability, T/C [32]: 50%
- viability, T/C [33]: 44.8%
- viability, T/C [34]: 39.6%
- viability, T/C [35]: 30.6%
- viability, T/C [36]: 7.44%
- viability, T/C [37]: 21.6%
- viability, T/C [38]: 26%
- viability, T/C [39]: 20.6%
- viability, T/C [40]: 21.1%
- viability, T/C [41]: 24.1%
- viability, T/C [42]: 0.19%
- viability, T/C [43]: 1.99%
- viability, T/C [44]: 3.65%
- viability, T/C [45]: 4%
- viability, T/C [46]: 2.6%
- viability, T/C [47]: 0.16%
- viability, T/C [48]: 0.13%
- viability, T/C [49]: 0.13%
- viability, T/C [50]: 0.14%
- viability, T/C [51]: 0.15%
- viability, T/C [52]: 0.1%
- viability, T/C [53]: 0.1%
- viability, T/C [54]: 0.16%
- viability, T/C [55]: 0.06%
- viability, T/C [56]: 0.13%
- viability, T/C [57]: 0.14%
- viability, T/C [58]: 0.13%
- viability, T/C [59]: 0.18%
- viability, T/C [60]: 0.2%

From PubChem BioAssay AID2060621 (Molecular Pharmacology Branch, DTP, NCI, 2025)
